# Data taken from patent publication US8304418B2, “Pyrazolopyrimidinone kinase inhibitor” (Agennix AG, priority 2007, dated 2012).
# “And” between values parts separate entries of the source, which are not always exact repeats. Identical values can stand only once. Like-named read-outs stand apart in the source and are kept apart here.
# Columns and labels:
# [1] = tested on: HCT116 colon carcinoma cells
# Protocol: (§5) Xenograft Tumor-Models: 100 athymic nu/nu female mice (6-8 weeks old) from CRL were allowed to acclimate for 4 days. […] The 3rd passage of cells with approximate 90% confluence was used for these experiments. Briefly, on Day 0, mice were inoculated with 0.1 ml (total 5×10^6 cells) of the respective cell-type as a cell suspension (50×10^6 cells/ml) by subcutaneous injection into the fat pad area near the mammary gland under light anesthesia. When the average tumor weight in all mice reached over 100 mg (day 10), 80 animals with an average tumor size of 130 mg were selected and were randomly divided into 8 groups.
# (§6) A 20 G gavage needle was used for the oral treatment.
# (§7) Tumor growth and body weight were monitored and recorded three times a week. Tumors were measured by determining the length and width of the tumor with a digital caliper. Tumor weight was estimated using the following formula: Tumor Weight (mg)=(w^2×1)×0.52 where w=width and l=length in mm of the tumor.
# (§8) Experimental treatment may cause partial regression (PR) or complete regression (CR) of tumors. PR is defined when the tumor size is 50% or less than the starting (day 1) size but greater than 0.0 mg for three consecutive measurements during the course of the study. CR occurs when there is no measurable tumor mass for three consecutive measurements. Cures are defined when CR are maintained until the completion of the experiment.
# (§9) Mice were sacrificed when their tumors reached the 1000 mm^3 endpoint volume. Treatment efficacy was determined as Log Cell Kill (LCK).
# (§10) Toxic deaths are defined as deaths caused by compound treatment and not by advanced disease state. […] Non-tumor related deaths after this point are recorded, but not considered toxic deaths.
# (§11) Briefly, the empirical distributions of T and Td were derived from B=1000 realisations of random selection of n individual animals with replacement from the set i=1, . . . , n of the appropriate group of mice containing n evaluable animals, estimating the mean tumor size for such selection of animals for each time-point, and linear regression analysis from a semi-log plot of such averages against time. Dead mice and mice with no measurable tumor size were treated as missing data and were ignored when calculating the average.
# [2] = tested on: CDK9-specific phosphorylation of RNA polymerase II (RNAPII) on serine 2; assay: In-cell RNAPII phosphorylation (immunoblot); type: cell-based, human; settings: Homo sapiens, 3 h
# Protocol: (§1) The following cancer cell lines were investigated in the course of these studies: A2780 (ovarian), HCT116 (colon), RPMI8226 (myeloma), SKMel28 (melanoma), Colo205 (colorectal), MDA-MB-435 (melanoma), MDA-MB-453 (breast, carcinoma), MDA-MB-468 (breast, adenocarcinoma), A549 (lung), Raji (lymphoma, Burkitt). Cell lines were obtained from public repositories.
# CDK9-specific phosphorylation of RNA polymerase II (RNAPII) on Serine 2 (Ser2). Asynchronous cells were treated with an appropriate concentration of test compound or DMSO as a control. After 3 h incubation (37° C./5% CO2) cells were lysed with CLB-1 lysis buffer (Zeptosense, Switzerland), the lysate was cleared by centrifugation (10 min, 13000 rpm, RT) and subjected to SDS-PAGE. Total protein was blotted on PVDF membranes and analyzed using antibodies against S2-phosphorylated RNAPII (H5; Covance) or total RNAPII (N-20; Santa Cruz) as an expression control. Visualization was conducted using secondary Alexa680- or IR800-coupled antibodies (Molecular Probes) against mouse or rabbit Fc tails on the Odyssey-system (Licor). Specific bands were quantified and IC50 values of inhibition of RNAPII phosphorylation were estimated.
# [3] = tested on: CDK1-dependent Eg-5 phosphorylation on threonine 927; assay: In-cell Eg-5 phosphorylation (immunoblot); type: cell-based, human; settings: Homo sapiens, 1 h
# Excerpt: (§2) This set of assays represents CDKs involved in cell cycle progression (CDK1, 4/6), and the “regulatory CDK” (CDK9) which is involved in transcriptional regulation.
# as §1
# CDK1-dependent Eg-5 phosphorylation on threonine 927 (Thr927phos). Thr927phos was investigated by arresting cells over night in G2/M phase with 25 ng/ml nocodazole (optimized final concentration) followed by treatment with DMSO as control or an appropriate concentration of test compound for 1 hour. Detached as well as adherent cells were collected and lysed with CLB-1 lysis buffer. the lysate cleared by centrifugation and subjected to SDS-PAGE. The proteins were blotted on PVDF membranes and subsequently analyzed by antibodies against total Eg-5 (Becton Dickinson) and Eg-5 Thr927phos (Bio legend). Visualization and estimation of IC50 was conducted as above.
# CDK4 = CDK4 (Homo sapiens, UniProt P11802); assay: Biochemical CDK4 inhibition assay
# Sequence of CDK4 (P11802 whole entry): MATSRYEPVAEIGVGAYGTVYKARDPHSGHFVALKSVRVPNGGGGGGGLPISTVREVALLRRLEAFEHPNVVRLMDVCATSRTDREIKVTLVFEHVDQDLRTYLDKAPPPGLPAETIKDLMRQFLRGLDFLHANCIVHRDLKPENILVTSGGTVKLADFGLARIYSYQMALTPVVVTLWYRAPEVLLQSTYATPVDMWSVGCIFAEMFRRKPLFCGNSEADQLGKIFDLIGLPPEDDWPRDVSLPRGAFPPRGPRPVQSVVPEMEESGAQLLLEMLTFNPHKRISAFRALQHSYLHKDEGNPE
# Sequence of CDK4 (P24385 whole entry partner): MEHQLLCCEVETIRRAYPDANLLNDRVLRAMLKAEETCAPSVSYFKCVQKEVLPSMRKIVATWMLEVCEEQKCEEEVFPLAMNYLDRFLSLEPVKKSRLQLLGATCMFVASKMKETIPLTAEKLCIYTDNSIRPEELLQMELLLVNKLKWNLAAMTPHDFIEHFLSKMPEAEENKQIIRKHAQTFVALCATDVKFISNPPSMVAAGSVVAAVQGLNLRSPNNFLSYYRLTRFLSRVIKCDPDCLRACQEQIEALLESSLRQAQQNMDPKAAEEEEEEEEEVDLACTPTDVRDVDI
# Protocol: (§3) The assays used for determining the properties of the kinase inhibitors were performed in accordance with standard procedures well known to those skilled in the art. For example, assays for determining inhibitory activity on CDKs or in cellular assays are described in WO 00/218962, WO 2005/026129, and WO 2005/063765. Solubility assays at pH 7.4 were essentially performed as described by Avdeef, A. in Pharmacokinetic Optimization in Drug Research; Testa, B.; van de Waterbeemd, H.; Folkers, G.; Guy, R. Eds.; Wiley-VHC: Zurich, 2001; pp 305-326. PAMPA permeability assays at pH 7.4 were essentially performed as described in Kansy et al., J. Med. Chem. 41: 1007-10, 1998.
# [4] = PAMPA permeability assay at pH 7.4; type: in vitro ADME
# Protocol: as §3
# CDK6 = CDK6 (Homo sapiens, UniProt Q00534); assay: Biochemical CDK6 inhibition assay
# Sequence of CDK6 (Q00534 whole entry): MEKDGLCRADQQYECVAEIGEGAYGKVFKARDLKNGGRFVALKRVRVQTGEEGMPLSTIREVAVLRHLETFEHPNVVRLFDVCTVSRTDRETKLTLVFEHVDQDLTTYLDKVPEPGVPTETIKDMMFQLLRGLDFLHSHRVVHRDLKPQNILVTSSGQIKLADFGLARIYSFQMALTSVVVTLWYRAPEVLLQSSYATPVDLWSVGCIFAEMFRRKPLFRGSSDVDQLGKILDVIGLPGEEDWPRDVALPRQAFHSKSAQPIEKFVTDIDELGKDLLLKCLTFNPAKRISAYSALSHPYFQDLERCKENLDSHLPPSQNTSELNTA
# Sequence of CDK6 (P30281 whole entry partner): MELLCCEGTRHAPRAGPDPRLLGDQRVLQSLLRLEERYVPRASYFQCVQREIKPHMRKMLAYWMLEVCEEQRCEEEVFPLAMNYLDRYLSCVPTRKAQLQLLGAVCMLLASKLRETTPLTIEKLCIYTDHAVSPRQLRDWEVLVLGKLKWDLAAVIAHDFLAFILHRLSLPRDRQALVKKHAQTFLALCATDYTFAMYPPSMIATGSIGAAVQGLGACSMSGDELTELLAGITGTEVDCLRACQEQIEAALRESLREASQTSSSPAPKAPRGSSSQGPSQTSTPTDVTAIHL
# Protocol: as §3
# Sk-mel-28 = assay: Cell proliferation, Sk-mel-28; type: cell-based; settings: Homo sapiens
# Protocol: as §3
# (§4) When compared to IC50s of cellular proliferation by compound I, (as determined by the methods described earlier), the corresponding IC50 for cellular inhibition of CDK9-dependent RNAPII phosphorylation is approximately similar.
# A2780 = assay: Cell proliferation, A2780; type: cell-based; settings: Homo sapiens
# Protocol: as §3, §4
# [5] = tested on: human A2780 ovarian tumor cells
# Protocol: as §5, §6, §7, §8, §9, §10, §11
# [6] = tested on: CDK4/6-specific phosphorylation of Rb on serine 780; assay: In-cell Rb phosphorylation (immunoblot); type: cell-based, human; settings: Homo sapiens, read-out: IC50 (uM) - Rb-5 phosphorylation
# Excerpt: as §2, §1
# CDK4/6-specific phosphorylation of Rb on serine 780 (Ser780phos). Asynchronous growing cells were treated with an appropriate concentration of test compound or DMSO for 1 hour. Proteins were extracted using the AllPrep RNA/Protein kit according to the manufacturer's recommendations (Qiagen, Germany). Rb was immunoprecipitated over night using Ab05 antibody (Oncogene Inc.). Proteins were separated by SDS-PAGE, blotted to PVDF membranes and analyzed with antibodies against total (sc-102; Santa Cruz) or Ser780-phosphorylated Rb proteins (Cell Signalling). Visualization and quantification was performed as above.
# [7] = tested on: cell lines A2780, HCT-116, HT-29, HepG2, NCI/ADR-RES, OVCAR3, H460, IMR-90, T98G, A549 among others; assay: Inhibition of proliferation in a set of cancer-model cell lines; type: cell-based; settings: read-out: IC50 values, inhibition of proliferation (range over cell lines)
# Protocol: as §3
# [8] = Solubility assay at pH 7.4; type: physicochemical; settings: pH 7.4, aqueous buffer
# Protocol: as §3
# HCT116 = assay: Cell proliferation, HCT116; type: cell-based; settings: Homo sapiens, HCT-116
# Protocol: as §3, §4
structure (smiles),measurement,setting,value
"CC(C)c1nn(-c2c(Cl)cncc2Cl)c2nc(Cc3ccc(CN4CCCC4)c(O)c3)[nH]c(=O)c12 [Compound I, 1-(3,5-dichloropyridin-4-yl)-6-(3-hydroxy-4-pyrrolidinomethyl-phenyl)methyl-3-isopropyl-pyrazolo[3,4-d]pyrimidin-4-one]",LCK ± CI (95%) (Td: 6.8 d),"[1]; HCT116, 31.6 [29.5] mg/kg po qdx10",0.21 ± 0.08 and 0.21
same,Max % TGI (d),"[1]; HCT116, 31.6 [29.5] mg/kg po qdx10, day 32",32.7 (32) %
same,LCK ± CI (95%) (Td: 6.8 d),"[1]; HCT116, 63.3 [59.1] mg/kg po qdx10",0.51 ± 0.17 and 0.51
same,Max % BW Loss (d),"[1]; HCT116, 63.3 [59.1] mg/kg po qdx10, day 16",3.2 (16) %
same,Max % TGI (d),"[1]; HCT116, 63.3 [59.1] mg/kg po qdx10, day 32",58.5 (32) %
same,LCK ± CI (95%) (Td: 6.8 d),"[1]; HCT116, 95 [89] mg/kg po qdx10",0.60 ± 0.17 and 0.60
same,Toxic Mortality,"[1]; HCT116, 95 [89] mg/kg po qdx10",1/10
same,Max % TGI (d),"[1]; HCT116, 95 [89] mg/kg po qdx10, day 20",68.4 (20) %
same,Max % BW Loss (d),"[1]; mouse, in vivo, po",10.2 (16) %
same,IC50,"[2]; COLO 205, Colo205 cells",~0.1 µM
same,IC50,"[2]; HCT-116, HCT116 cells",~0.1 µM
same,IC50,"[2]; RPMI-8226, RPMI8226 cells",~0.1 µM
same,IC50,[2]; A2780 cells,~0.1 µM
same,IC50,[2]; MDA-MB-468 cells,~0.1 µM
same,IC50,[2]; Sk-mel-28 cells,~0.1 µM
same,IC50,"[3]; COLO 205, Colo205 cells",~1 µM
same,IC50,"[3]; HCT-116, HCT116 cells",~3 µM
same,IC50,"[3]; RPMI-8226, RPMI8226 cells",> 1 µM
same,IC50,[3]; A549 cells,> 1 µM
same,IC50,[3]; A2780 cells,~1 µM
same,IC50,[3]; MDA-MB-435 cells,~0.5 µM
same,IC50,[3]; MDA-MB-453 cells,~1 µM
same,IC50,[3]; Raji cells,> 1 µM
same,IC50,CDK4,~0.05 µM
same,permeability in a PAMPA assay,[4],about 70%
same,IC50,CDK6,0.01 to 0.05 µM
same,IC50,Sk-mel-28,~0.3 µM
same,IC50,A2780,~0.1 µM
same,LCK ± CI (95%) (Td: 1.7 d),[5]; 32 [30] mg/kg po qdx10,0.44 ± 0.24 and 0.44
same,Toxic Mortality,"[5]; 32 [30] mg/kg po qdx10, N=10",0
same,Max % TGI (d),"[5]; 32 [30] mg/kg po qdx10, day 11",52.2 (11) %
same,LCK ± CI (95%) (Td: 1.7 d),[5]; 63 [59] mg/kg po qdx10,0.93 ± 0.39 and 0.93
same,Toxic Mortality,"[5]; 63 [59] mg/kg po qdx10, N=10",0
same,Max % TGI (d),"[5]; 63 [59] mg/kg po qdx10, day 11",67.3 (11) %
same,LCK ± CI (95%) (Td: 1.7 d),[5]; 95 [89] mg/kg po qdx7,2.16 ± 0.44 and 2.16
same,Toxic Mortality,[5]; 95 [89] mg/kg po qdx7,1/10
same,Max % TGI (d),"[5]; 95 [89] mg/kg po qdx7, day 11",86.2 (11) %
same,IC50,"[6]; A2780, 1 h, A2780 cells",~0.5 µM
same,IC50,"[6]; HCT-116, 1 h, HCT116 cells",~5 µM
same,IC50,"[6]; MDA-MB-435, 1 h, MDA-MB-435 cells",~3 µM
same,IC50,"[6]; RPMI-8226, 1 h, RPMI8226 cells",~5 µM
same,IC50,"[6]; SK-MEL-28, 1 h, Sk-mel-28 cells",~3 µM
same,IC50,[7],0.01 to 0.8 µM
same,solubility,[8],~390 µM
same,IC50,HCT116,~0.1 µM
